Test system: Mycobacterium tuberculosis strain EH4.0 expressing green-fluorescent protein (GFP)
Assay: microbe, parasite or virus in culture
Type: cell-based
Conditions: 168 h, read-out: pIC50 (converted)

Structure (SMILES) | IC50
CCc1nc2cc(C)c(Cl)cn2c1C(=O)NCc1ccc(N2CCN(S(=O)(=O)C(F)(F)F)C=N2)cc1 [Compound 107] | 24 nM
CCOc1cn2c(CC)c(C(=O)NCc3ccc(N4CCN(S(=O)(=O)C(F)(F)F)C=N4)c(F)c3)nc2nc1N1CCCC1 [Compound 81] | ≥ 501 nM
CCc1nc2cc(F)c(Cl)cn2c1C(=O)NCc1ccc(N2CCN(S(=O)(=O)C(F)(F)F)C=N2)c(F)c1 [Compound 157] | 1.38 nM
CCc1nc2nc(C)c(F)cn2c1C(=O)NCc1ccc(N2CCN(S(=O)(=O)C(F)(F)F)C=N2)c(F)c1 [Compound 177] | 7.94 nM
COC1=NN(c2ccc(CNC(=O)c3c(C(F)F)nc4ccccn34)cc2F)CCN1S(=O)(=O)C(F)(F)F [Compound 160] | 1.2 nM
CCc1nc2ncc(F)cn2c1C(=O)NCc1ccc(N2CCN(S(=O)(=O)C(F)(F)F)C=N2)c(F)c1 [Compound 130] | 8.71 nM
CCc1nc2nc(Cl)ccn2c1C(=O)NCc1ccc(N2CCN(S(=O)(=O)C(F)(F)F)C=N2)c(F)c1 [Compound 125] | 9.77 nM
CCc1nc2cc(Cl)c(Cl)cn2c1C(=O)NCc1ccc(N2CCN(S(=O)(=O)C(F)(F)F)C=N2)c(F)c1 [Compound 118] | 13.8 nM
COC1=NN(c2ccc(CNC(=O)c3c(C(F)F)nc4n3CCCC4)cc2)CCN1S(=O)(=O)C(F)(F)F [Compound 109] | 20 nM
CCC1=NN(c2ccc(CNC(=O)c3c(CC)nc4ccc(Cl)cn34)cc2)CCN1S(=O)(=O)C(F)(F)F [Compound 2] | 15.8 nM
COc1ccn2nc(C)c(C(=O)NCc3ccc(N4CCN(S(=O)(=O)C(F)(F)F)C=N4)cc3)c2c1 [Compound 14] | 6.31 nM
CCc1nc2c(F)cc(C)cn2c1C(=O)NCc1cnc(N2CCN(S(=O)(=O)C(F)(F)F)C=N2)c(F)c1 [Compound 181] | 6.31 nM
CCc1nc2c(F)cc(C)cn2c1C(=O)NCc1ccc(N2CCNC=N2)c(F)c1 [Compound 198] | 93.3 nM
CCc1nc2ccc(CCCOC)cn2c1C(=O)NCc1ccc(N2CCN(S(=O)(=O)C(F)(F)F)C=N2)cc1 [Compound 63] | ≥ 501 nM
Cc1cn2c(C(=O)NCc3ccc(N4CCN(S(=O)(=O)C(F)(F)F)C=N4)c(F)c3)c(C)nc2s1 [Compound 153] | 1.78 nM
CCc1nc2nc3c(cn2c1C(=O)NCc1ccc(N2CCN(S(=O)(=O)C(F)(F)F)C(OC)=N2)c(F)c1)CCC3 [Compound 158] | 1.38 nM
CCc1nc2ccc(OC)cn2c1C(=O)NCc1ccc(N2CCN(S(=O)(=O)C(F)(F)F)C(OC)=N2)c(F)c1 [Compound 48] | 1.58 nM
COC1=NN(c2ccc(CNC(=O)c3c(C)nn4ccc(OC)cc34)cc2)CCN1S(=O)(=O)C(F)(F)F [Compound 34] | 10 nM
CCc1nc2ncc(Cl)cn2c1C(=O)NCc1ccc(N2CCN(C(C)=O)C=N2)cc1 [Compound 24] | 15.8 nM
O=C(NCc1cnc(N2CCN(S(=O)(=O)C(F)(F)F)C=N2)c(F)c1)c1c(C(F)(F)F)nc2c(F)cccn12 [Compound 182] | 31.6 nM
CCc1nc2c(C)cc(Cl)cn2c1C(=O)NCc1ccc(N2CCN(S(=O)(=O)C(F)(F)F)C=N2)c(F)c1 [Compound 85] | 95.5 nM
COC1=NN(c2ccc(CNC(=O)c3c(C(F)(F)F)nc4n3CCCC4)cc2F)CCN1S(=O)(=O)C(F)(F)F [Compound 112] | 17.4 nM
CCc1nc2cc3c(cn2c1C(=O)NCc1ccc(N2CCN(S(=O)(=O)C(F)(F)F)C=N2)c(F)c1)OCO3 [Compound 134] | 7.59 nM

Structure (SMILES) | IC50
CCc1nc2cc(Cl)c(C)cn2c1C(=O)NCc1ccc(N2CCN(S(=O)(=O)C(F)(F)F)C(OC)=N2)c(F)c1 [Compound 209] | 11.2 nM
CCc1nc2cc(OC)c(Cl)cn2c1C(=O)NCc1ccc(N2CCN(S(=O)(=O)C(F)(F)F)C=N2)c(F)c1 [Compound 93] | 49 nM
CCc1nc2cc(OC)c(Cl)cn2c1C(=O)NCc1ccc(N2CCN(S(=O)(=O)C(F)(F)F)C=N2)cc1 [Compound 64] | 316 nM
CCc1nc2cc(Cl)c(OC)cn2c1C(=O)NCc1ccc(N2CCN(S(=O)(=O)C(F)(F)F)C=N2)cc1 [Compound 67] | 200 nM
CCc1nc2ccc(Cl)cn2c1C(=O)NCc1ccc(N2CCN(C=O)C=N2)cc1 [Compound 38] | 63.1 nM
CCc1nc2cc3c(cn2c1C(=O)NCc1ccc(N2CCN(S(=O)(=O)C(F)(F)F)C=N2)c(F)c1)CCC3 [Compound 113] | 16.2 nM
CCc1nc2cc(F)c(Cl)cn2c1C(=O)NCc1ccc(N2CCN(S(=O)(=O)C(F)(F)F)C(OC)=N2)c(F)c1 [Compound 141] | 4.9 nM
CCc1nc2ncc(Cl)cn2c1C(=O)NCc1ccc(N2CCN(S(=O)(=O)C(F)(F)F)C(OC)=N2)cc1 [Compound 27] | 2 nM
CCc1nc2ccc(OC)cn2c1C(=O)NCc1ccc(N2CCN(S(=O)(=O)C(F)(F)F)C=N2)cc1 [Compound 42] | 6.31 nM
CCc1nc2ncc(C(C)=O)cn2c1C(=O)NCc1ccc(N2CCN(S(=O)(=O)C(F)(F)F)C=N2)cc1 [Compound 62] | ≥ 501 nM
Cc1cn2c(C(=O)NCc3ccc(N4CCN(S(=O)(=O)C(F)(F)F)C=N4)c(F)c3)c(C(F)(F)F)nc2s1 [Compound 136] | 6.31 nM
CCc1nc2ccc(Cl)cn2c1C(=O)NCc1ccc(N2CCN(c3nccs3)C=N2)cc1 [Compound 76] | 13.5 nM
O=C(NCc1ccc(N2CCN(S(=O)(=O)C(F)(F)F)C=N2)c(F)c1)c1c(C(F)(F)F)nc2c(F)cccn12 [Compound 186] | 3.63 nM
O=C(NCc1ccc(N2CCN(S(=O)(=O)C(F)(F)F)C=N2)c(F)c1)c1c(C(F)(F)F)nc2ccc(Cl)cn12 [Compound 124] | 10 nM
CCc1nc2ccc(Cl)cn2c1C(=O)NCc1ccc(N2CCN(C(=O)C(F)(F)F)C=N2)cc1 [Compound 66] | 251 nM
CCc1nc2ccc(F)cn2c1C(=O)NCc1ccc(N2CCN(S(=O)(=O)C(F)(F)F)C=N2)c(F)c1 [Compound 156] | 1.38 nM
CCc1nc2ccc(Cl)cn2c1C(=O)NCc1ccc(N2CCN(S(=O)(=O)C(F)(F)F)C(CCOC)=N2)cc1 [Compound 55] | 25.7 nM
CCc1nc2ccc(C3CC3)cn2c1C(=O)NCc1ccc(N2CCN(S(=O)(=O)C(F)(F)F)C=N2)c(F)c1 [Compound 101] | 29.5 nM
CCc1nc2ccc(Cl)cn2c1C(=O)NCc1ccc(N2CCN(S(=O)(=O)CC(C)C)C=N2)cc1 [Compound 17] | 20 nM
CCc1nc2cc(OC)c(Cl)cn2c1C(=O)NCc1ccc(N2CCN(S(=O)(=O)C(F)(F)F)C(OC)=N2)cc1 [Compound 68] | ≥ 501 nM
CCc1nc2nc3c(cn2c1C(=O)NCc1ccc(N2CCN(S(=O)(=O)C(F)(F)F)C=N2)c(F)c1)COCC3 [Compound 90] | 74.1 nM
COC1=NN(c2ccc(CNC(=O)c3c(C(F)(F)F)nc4ccccn34)cc2)CCN1S(=O)(=O)C(F)(F)F [Compound 150] | 2.95 nM
CCc1nc2ncc(Cl)cn2c1C(=O)NCc1cnc(N2CCN(S(=O)(=O)C(F)(F)F)C=N2)c(F)c1 [Compound 168] | 38.9 nM

From patent US20220340564A1, “ANTIBACTERIAL COMPOUNDS” (Janssen Sciences Ireland Unlimited Company, priority 2019, published 2022)
